Test results as given in US20260071187A1, “MOLECULARLY CLEAVABLE BIOINK FORMULATION” (THE BRIGHAM AND WOMEN'S HOSPITAL, INC., priority 2022, published 2026).

Legend:
[1] = system: AMPA receptor; assay: MEA recording with pharmacological intervention (NBQX); assay type: cell-based, human; details: NBQX 10 μM, Hase-1000 samples at week 4, vs DMSO
Method: (§1) MEA recording of 3D-bioprinted mini-brains was performed from week 1 to week 4 after differentiation (day 10 to day 31 after digestion). The samples containing SNaPs were plated on Geltrex-coated 12-well MEA plates (Axion Biosystems, USA) in the differentiation medium. The samples were fed 2-3 times a week with partial medium change. Neuronal activities were measured every week using the Maestro 12-well MEA plate system (Axion Biosystems) for 5 min. After 4 weeks of culture in MEA plate, synaptic contents were tested using pharmacological inhibitors of neurotransmitter receptors. Specifically, neuronal activity was measured for 5 min by adding DMSO control before adding 10 μM of NBQX (Abcam) or 10 μM of D-APV (Abcam). The samples were incubated for 5-10 min, and neuronal activities were assessed again for 5 min. All the MEA data were analyzed using the Axion Integrated Studio 2.4.2 and the Neural Metric Tool (Axion Biosystems).

[2] = system: NMDA receptor; assay: MEA recording with pharmacological intervention (D-APV); assay type: cell-based, human; details: D-APV 50 μM (FIG. 8g legend), Hase-1000 samples at week 4, vs DMSO
Method: as §1, with “Specifically, neuronal activity was measured for 5 min by adding DMSO control before adding 10 μM of NBQX (Abcam) or 10 μM of D-APV (Abcam).” left out

burst frequency [1] | mean firing rate [1] | burst frequency [2] | firing [2] | SMILES
significantly reduced | significantly reduced |  |  | NS(=O)(=O)c1cccc2c1c([N+](=O)[O-])cc1nc(O)c(O)nc12 [NBQX, 2,3-dihydroxy-6-nitro-7-sulfamoyl-benzo(F)quinoxaline]
 |  | significantly reduced | significantly reduced | N[C@H](CCCP(=O)(O)O)C(=O)O [D-APV, D-2-amino-5-phosphonovaleric acid]
